# What was measured:
# Type in all cases: cell-based
# [1] = target: Ba/F3 EGFR-D770-N771ins_SVD (Homo sapiens, UniProt P00533, DUP768-770, cells depend on it); test: Proliferation experiment of Ba/F3 cell line, EGFR-D770-N771ins_SVD (CellTiter-Glo); details: cultured for 72 hrs with compound, CTG analysis, read-out: Ba/F3 EGFR-D770-N771ins_SVD IC50
# Procedure: (§1) Proliferation Experiment of Ba/F3 Cell Line
# (§2) (I) Reagents and Materials
# (§3) • Fetal bovine serum FBS (GBICO, Cat #10099-141); • CellTiter-Glo® luminescent cell viability assay kit (Promega, Cat #G7572); • Black transparent flat-bottom 96 well plate (Corning®, Cat #3603). (II) Instruments • SpectraMax multi-label microplate reader MD, 2104-0010A; • Carbon dioxide incubator, Thermo Scientific 3100 series; • Biological safety cabinet, Thermo Scientific, 1300 series model A2; • Inverted microscope, Olympus, CKX41SF; • Siemens refrigerator KK25E76TI. (III) Cell Lines and Culture Conditions
# (§4) (IV) Experimental Procedures 1. Cell Culture and Inoculation: • (1) Cells in the logarithmic growth phase were harvested and counted using a […]. Cell viability was detected by Trypan Blue Dye Exclusion Method to ensure cell viability above 90%. • (2) The cell concentration was adjusted to reach a desired final density; 90 μL of cell suspension was added to the 96-well plate. • (3) The cells were incubated overnight in the 96-well plate at 37° C., 5% CO2 and at 95% humidity.
# (§5) 2. T0 Reference Data: • (1) 10 μL PBS was added to each well of the TO plate containing the cells. • (2) The CTG reagent was thawed and the cell plate was equilibrated to room temperature for 30 min. • (3) An equal volume of CTG solution was added to each well. • (4) The cells were lysed by shaking on an orbital shaker for 5 min. • (5) The cell plate was left at room temperature for 20 min to stabilize the luminescence signal. • (6) The fluorescence signal values of TO were read. 3. Dilution and Addition of Compounds • (1) According to the compound information table, a corresponding volume of DMSO was added to the corresponding compound powder to prepare a 10 mM stock solution. • (2) A 1000-fold, 3.16-fold-diluted compound solution was prepared. • (3) The 1000× diluted compound solution was diluted 100-fold with PBS to prepare a 10-fold compound solution with a maximum concentration of […], including 9 concentrations, with 3.16-fold dilution, and 10 μL of the medicament solution was added to each well of the 96-well plate to seed the cells. Triplicate wells were set for each compound concentration, with a final concentration of DMSO being 0.1%. • (4) The cells were placed in the 96-well plate filled with the medicament at 37° C., 5% CO2 and at 95% humidity, and cultured for 72 hrs before CTG analysis. 4. Fluorescence Signal Reading • (1) The CTG reagent was thawed and the cell plate was equilibrated to room temperature for 30 min. • (2) An equal volume of CTG solution was added to each well. • (3) The cells were lysed by shaking on an orbital shaker for 5 min. • (4) The cell plate was left at room temperature for 20 min to stabilize the fluorescence signal. • (5) The fluorescence values were read. 5. Data Processing
# (§6) Data were analyzed using GraphPad Prism 7.0 software and fitted data were regressed using non-linear S-curves to obtain dose-response curves from which IC50 values (in nM) were calculated.
# A431 (EGFR-WT) = test: Proliferation experiment, A431 cell line (CellTiter-Glo); details: Homo sapiens, A-431; A431 cells, cultured for 72 hrs with compound, CTG analysis
# Procedure: [The procedure below names another cell line; the source lists this cell line under the same test.] as §1, §2, §3, §4, §5, §6
# [2] = target: Ba/F3 EGFR-V769_D770insASV (Homo sapiens, UniProt P00533, DUP767-769, cells depend on it); test: Proliferation experiment of Ba/F3 cell line, EGFR-V769_D770insASV (CellTiter-Glo); details: cultured for 72 hrs with compound, CTG analysis, read-out: Ba/F3 EGFR-V769_D770insASV IC50
# Procedure: as §1, §2, §3, §4, §5, §6
# Chain of Ba/F3 EGFR-V769_D770insASV (P00533 with tags, fused parts or gaps DUP767-769): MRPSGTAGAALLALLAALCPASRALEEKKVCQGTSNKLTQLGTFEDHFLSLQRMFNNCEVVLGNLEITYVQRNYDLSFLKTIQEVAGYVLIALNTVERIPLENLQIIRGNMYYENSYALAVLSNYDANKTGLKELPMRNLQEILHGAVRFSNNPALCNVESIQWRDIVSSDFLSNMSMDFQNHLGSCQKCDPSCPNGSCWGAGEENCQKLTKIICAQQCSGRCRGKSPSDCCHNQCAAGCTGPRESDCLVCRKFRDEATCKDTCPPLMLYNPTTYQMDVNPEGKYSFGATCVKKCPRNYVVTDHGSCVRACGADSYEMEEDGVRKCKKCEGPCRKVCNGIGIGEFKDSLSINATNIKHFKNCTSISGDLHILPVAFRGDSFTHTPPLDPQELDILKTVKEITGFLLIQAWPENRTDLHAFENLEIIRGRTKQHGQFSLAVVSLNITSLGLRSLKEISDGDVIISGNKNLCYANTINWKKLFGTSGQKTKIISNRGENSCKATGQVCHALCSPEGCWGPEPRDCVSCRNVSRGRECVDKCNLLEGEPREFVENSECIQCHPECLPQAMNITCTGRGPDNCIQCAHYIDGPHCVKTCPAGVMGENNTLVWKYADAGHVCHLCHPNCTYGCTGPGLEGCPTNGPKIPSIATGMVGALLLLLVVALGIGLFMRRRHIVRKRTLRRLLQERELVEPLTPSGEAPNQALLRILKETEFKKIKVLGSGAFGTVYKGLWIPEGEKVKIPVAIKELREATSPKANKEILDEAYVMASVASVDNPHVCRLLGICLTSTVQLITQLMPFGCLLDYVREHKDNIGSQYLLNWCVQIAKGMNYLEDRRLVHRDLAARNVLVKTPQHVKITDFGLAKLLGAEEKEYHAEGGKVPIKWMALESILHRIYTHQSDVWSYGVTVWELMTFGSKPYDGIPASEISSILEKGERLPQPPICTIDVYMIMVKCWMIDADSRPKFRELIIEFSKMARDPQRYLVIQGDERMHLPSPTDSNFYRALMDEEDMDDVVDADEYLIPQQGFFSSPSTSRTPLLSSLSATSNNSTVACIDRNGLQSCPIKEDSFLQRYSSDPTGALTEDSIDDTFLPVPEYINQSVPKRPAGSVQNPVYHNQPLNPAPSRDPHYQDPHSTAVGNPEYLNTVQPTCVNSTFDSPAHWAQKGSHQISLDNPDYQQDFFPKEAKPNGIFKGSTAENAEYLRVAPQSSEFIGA
# Chain of Ba/F3 EGFR-D770-N771ins_SVD (P00533 with tags, fused parts or gaps DUP768-770): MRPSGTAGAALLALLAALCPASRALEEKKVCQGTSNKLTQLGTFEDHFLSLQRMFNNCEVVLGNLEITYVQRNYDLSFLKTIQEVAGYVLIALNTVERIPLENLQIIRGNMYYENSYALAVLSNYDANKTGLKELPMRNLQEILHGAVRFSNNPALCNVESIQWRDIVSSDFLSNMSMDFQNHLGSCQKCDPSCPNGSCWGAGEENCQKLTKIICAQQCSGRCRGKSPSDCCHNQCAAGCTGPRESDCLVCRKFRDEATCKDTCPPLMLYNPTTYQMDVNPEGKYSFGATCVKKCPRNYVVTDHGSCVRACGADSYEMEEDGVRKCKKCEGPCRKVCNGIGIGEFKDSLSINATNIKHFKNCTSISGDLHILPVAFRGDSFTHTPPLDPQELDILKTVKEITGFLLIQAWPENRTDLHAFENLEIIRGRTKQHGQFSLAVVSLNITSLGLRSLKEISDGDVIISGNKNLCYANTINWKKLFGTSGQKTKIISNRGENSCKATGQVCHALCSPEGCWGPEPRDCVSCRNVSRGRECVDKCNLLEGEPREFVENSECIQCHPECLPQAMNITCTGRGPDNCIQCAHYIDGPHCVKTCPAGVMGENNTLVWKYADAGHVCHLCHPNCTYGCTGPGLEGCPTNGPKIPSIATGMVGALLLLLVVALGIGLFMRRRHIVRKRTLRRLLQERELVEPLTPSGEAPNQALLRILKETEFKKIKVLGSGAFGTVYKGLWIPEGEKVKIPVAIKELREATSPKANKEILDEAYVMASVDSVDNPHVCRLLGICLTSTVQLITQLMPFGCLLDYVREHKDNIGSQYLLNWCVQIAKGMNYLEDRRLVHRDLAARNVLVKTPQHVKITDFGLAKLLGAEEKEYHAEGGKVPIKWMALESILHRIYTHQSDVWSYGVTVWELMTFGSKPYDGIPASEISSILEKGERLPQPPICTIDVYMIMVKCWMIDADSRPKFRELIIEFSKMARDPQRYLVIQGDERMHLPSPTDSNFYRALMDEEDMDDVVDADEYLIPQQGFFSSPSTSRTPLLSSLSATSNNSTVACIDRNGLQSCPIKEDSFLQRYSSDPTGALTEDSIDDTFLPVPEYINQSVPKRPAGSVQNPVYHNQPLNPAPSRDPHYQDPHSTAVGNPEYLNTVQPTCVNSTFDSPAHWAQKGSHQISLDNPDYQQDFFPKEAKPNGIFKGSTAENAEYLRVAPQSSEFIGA
Structure (SMILES),GI50 [1],IC50 (A431 (EGFR-WT)),GI50 [2]
"C=CC(=O)Nc1cc2c(Nc3cc(-c4ncc(F)cc4F)ccc3F)ncnc2cc1OCCCN1CCOCC1 [Example 2, N-(4-((5-(3,5-difluoropyridin-2-yl)-2-fluorophenyl)amino)-7-(3-morpholinopropoxy)quinazolin-6-yl)acrylamide]",121 nM,,
"C=CC(=O)Nc1cc2c(Nc3cccc(-c4ccc(F)cc4F)c3)ncnc2cc1C#CC(C)(C)N(C)C [Example 9, N-(4-((2′,4′-difluoro-[1,1′-biphenyl]-3-yl)amino)-7-(3-(dimethylamino)-3-methylbut-1-yn-1-yl)quinazolin-6-yl)acrylamide]",40.1 nM,625 nM,
"C=CC(=O)Nc1cc2c(Nc3cc(-c4ccc(F)cc4F)ccc3F)ncnc2cc1OCCN1CCOCC1 [Example 10, N-(7-(2-morpholinoethoxy)-4-((2′,4,4′-trifluoro-[1,1′-biphenyl]-3-yl)amino)quinazolin-6-yl)acrylamide]",28.7 nM,625 nM,
"C=CC(=O)Nc1cc2c(Nc3cccc(-c4ccc(F)cc4F)c3)ncnc2cc1C#CC(C)(C)N1CCN(C)CC1 [Example 12, N-(4-((2′,4′-difluoro-[1,1′-biphenyl]-3-yl)amino)-7-(3-methyl-3-(4-methylpiperazin-1-yl)but-1-yn-1-yl)quinazolin-6-yl)acrylamide]",32.3 nM,624 nM,
"C=CC(=O)Nc1cc2c(Nc3cccc(-c4ccc(F)cn4)c3)ncnc2cc1OCCCN1CCOCC1 [Example 13, N-(4-((3-(5-fluoropyridin-2-yl)phenyl)amino)-7-(3-morpholinopropoxy)quinazolin-6-yl)acrylamide]",105 nM,625 nM,
"C=CC(=O)Nc1cc2c(Nc3cccc(-c4ncc(F)cc4F)c3)ncnc2cc1OCCN1CCOCC1 [Example 16, N-(4-((3-(3,5-difluoropyridin-2-yl)phenyl)amino)-7-(2-morpholinoethoxy)quinazolin-6-yl)acrylamide]",34 nM,372 nM,
"C=CC(=O)Nc1cc2c(Nc3cc(-c4ncc(F)cc4F)ccc3F)ncnc2cc1OCCN1CCOCC1 [Example 18, N-(4-((5-(3,5-difluoropyridin-2-yl)-2-fluorophenyl)amino)-7-(2-morpholinoethoxy)quinazolin-6-yl)acrylamide]",129 nM,,
"C=CC(=O)Nc1cc2c(Nc3cc(-c4ccc(F)cn4)ccc3F)ncnc2cc1OCCCN1CCOCC1 [Example 23, N-(4-((2-fluoro-5-(5-fluoropyridin-2-yl)phenyl)amino)-7-(3-morpholinopropoxy)quinazolin-6-yl)acrylamide]",261 nM,,
"C=CC(=O)Nc1cc2c(Nc3cccc(-c4c(F)cc(F)cc4F)c3)ncnc2cc1OCCN1CCOCC1 [Example 24, N-(7-(2-morpholinoethoxy)-4-((2′,4′,6′-trifluoro-[1,1′-biphenyl]-3-yl)amino)quinazolin-6-yl)acrylamide]",46.2 nM,378 nM,
"C=CC(=O)Nc1cc2c(Nc3ccnc(-c4ccccc4F)c3)ncnc2cc1OCC(F)(F)F [Example 84, N-(4-((2-(2-fluorophenyl)pyridin-4-yl)amino)-7-(2,2,2-trifluoroethoxy)quinazolin-6-yl)acrylamide]",,1780 nM,3.2 nM
"C=CC(=O)Nc1cc2c(Nc3ccnc(-c4ccccc4F)c3)ncnc2cc1OCCOC [Example 85, N-(4-((2-(2-fluorophenyl)pyridin-4-yl)amino)-7-(2-methoxyethoxy)quinazolin-6-yl)acrylamide]",,1530 nM,3 nM
"C=C(F)C(=O)Nc1cc2c(Nc3ccnc(-c4ccccc4F)c3)ncnc2cc1OCCOC [Example 89, 2-fluoro-N-(4-((2-(2-fluorophenyl)pyridin-4-yl)amino)-7-(2-methoxyethoxy)quinazolin-6-yl)acrylamide]",,112 nM,12.8 nM
"C=C(F)C(=O)Nc1cc2c(Nc3ccnc(-c4ccccc4F)c3)ncnc2cc1N1CCN(C)CC1 [Example 101, 2-fluoro-N-(4-((2-(2-fluorophenyl)pyridin-4-yl)amino)-7-(4-methylpiperazin-1-yl)quinazolin-6-yl)acrylamide]",,240 nM,20.8 nM
"C=C(F)C(=O)Nc1cc2c(Nc3ccnc(-c4ccccc4F)c3)ncnc2cc1N1CC(OC)C1 [Example 104, 2-fluoro-N-(4-((2-(2-fluorophenyl)pyridin-4-yl)amino)-7-(3-methoxyazetidin-1-yl)quinazolin-6-yl)acrylamide]",,1190 nM,30 nM
"C=C(F)C(=O)Nc1cc2c(Nc3ccnc(-c4ccccc4F)c3)ncnc2cc1N1CC(F)C1 [Example 106, 2-fluoro-N-(7-(3-fluoroazetidin-1-yl)-4-((2-(2-fluorophenyl)pyridin-4-yl)amino)quinazolin-6-yl)acrylamide]",,1640 nM,40.9 nM
"C=C(F)C(=O)Nc1cc2c(Nc3ccnc(-c4ccccc4F)c3)ncnc2cc1N1CCC(F)(F)C1 [Example 108, N-(7-(3,3-difluoropyrrolidin-1-yl)-4-((2-(2-fluorophenyl)pyridin-4-yl)amino)quinazolin-6-yl)-2-fluoroacrylamide]",,,29.9 nM
"C=C(F)C(=O)Nc1cc2c(Nc3ccnc(-c4ccccc4F)c3)ncnc2cc1N1CCC(F)CC1 [Example 109, 2-fluoro-N-(4-((2-(2-fluorophenyl)pyridin-4-yl)amino)-7-(4-fluoropiperidin-1-yl)quinazolin-6-yl)acrylamide]",,159 nM,25.8 nM
"C=C(F)C(=O)Nc1cc2c(Nc3ccnc(-c4ccccc4F)c3)ncnc2cc1N1CCC(F)(F)CC1 [Example 110, N-(7-(4,4-difluoropiperidin-1-yl)-4-((2-(2-fluorophenyl)pyridin-4-yl)amino)quinazolin-6-yl)-2-fluoroacrylamide]",,703 nM,52.6 nM
"C=CC(=O)Nc1cc2c(Nc3ccnc(-c4ccccc4F)c3)ncnc2cc1O[C@@H]1CCN(C2CN(C)C2)C1 [Example 115, (R)-N-(4-((2-(2-fluorophenyl)pyridin-4-yl)amino)-7-((1-(1-methylazetidin-3-yl)pyrrolidin-3-yl)oxy)quinazolin-6-yl)acrylamide]",,23.2 nM,7.6 nM
"C=CC(=O)Nc1cc2c(Nc3ccnc(-c4ccccc4F)c3)ncnc2cc1O[C@@H]1CCN(C2CCOCC2)C1 [Example 117, (R)-N-(4-((2-(2-fluorophenyl)pyridin-4-yl)amino)-7-((1-(tetrahydro-2H-pyran-4-yl)pyrrolidin-3-yl)oxy)quinazolin-6-yl)acrylamide]",,988 nM,2.9 nM
"C=C(F)C(=O)Nc1cc2c(Nc3ccnc(-c4ccccc4F)c3)ncnc2cc1O[C@@H]1CCN(C2CN(C)C2)C1 [Example 119, (R)-2-fluoro-N-(4-((2-(2-fluorophenyl)pyridin-4-yl)amino)-7-((1-(1-methylazetidin-3-yl)pyrrolidin-3-yl)oxy)quinazolin-6-yl)acrylamide]",,10.2 nM,3.4 nM
"C=C(F)C(=O)Nc1cc2c(Nc3ccnc(-c4ccccc4F)c3)ncnc2cc1O[C@@H]1CCN(C2CCN(C)CC2)C1 [Example 120, (R)-2-fluoro-N-(4-((2-(2-fluorophenyl)pyridin-4-yl)amino)-7-((1-(1-methylpiperidin-4-yl)pyrrolidin-3-yl)oxy)quinazolin-6-yl)acrylamide]",,6 nM,7.1 nM

# From US12649727B2, “EFGR inhibitor, preparation method therefor and application thereof” (Abbisko Therapeutics Co., Ltd, priority 2020, dated 2026)
